One test concerns hPDE4B. The note with it: read-out: IC50 against hPDE4B; reported; cited from earlier work.
Test [1] addresses T1, TbrPDEB1 (Trypanosoma brucei, UniProt Q8WQX9).
T1 sequence (Q8WQX9 1-930): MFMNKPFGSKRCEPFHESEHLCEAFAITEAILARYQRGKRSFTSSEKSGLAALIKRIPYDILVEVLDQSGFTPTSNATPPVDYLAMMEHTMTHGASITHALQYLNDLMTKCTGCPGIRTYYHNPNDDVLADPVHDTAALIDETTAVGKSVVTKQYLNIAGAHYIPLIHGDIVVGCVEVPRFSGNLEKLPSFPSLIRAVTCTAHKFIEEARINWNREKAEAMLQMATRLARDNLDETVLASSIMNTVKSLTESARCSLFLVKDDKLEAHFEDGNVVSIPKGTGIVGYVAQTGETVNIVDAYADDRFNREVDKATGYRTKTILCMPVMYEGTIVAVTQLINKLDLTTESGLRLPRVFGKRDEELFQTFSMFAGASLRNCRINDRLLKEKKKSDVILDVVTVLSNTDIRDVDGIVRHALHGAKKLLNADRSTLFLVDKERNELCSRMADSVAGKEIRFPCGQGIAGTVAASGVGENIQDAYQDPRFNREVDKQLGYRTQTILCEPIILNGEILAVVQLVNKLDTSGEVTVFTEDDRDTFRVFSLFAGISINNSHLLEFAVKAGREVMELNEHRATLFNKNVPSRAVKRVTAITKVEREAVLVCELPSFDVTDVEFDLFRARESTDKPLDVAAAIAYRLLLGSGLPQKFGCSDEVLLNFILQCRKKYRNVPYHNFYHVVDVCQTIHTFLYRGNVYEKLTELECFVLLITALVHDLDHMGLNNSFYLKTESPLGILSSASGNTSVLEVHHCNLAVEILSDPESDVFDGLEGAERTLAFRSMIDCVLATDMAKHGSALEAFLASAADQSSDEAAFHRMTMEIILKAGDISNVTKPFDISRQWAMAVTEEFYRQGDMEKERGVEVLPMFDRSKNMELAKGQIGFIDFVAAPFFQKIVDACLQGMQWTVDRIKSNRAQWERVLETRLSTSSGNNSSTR
To be noted: result in words; cited from earlier work.

A further test deals with hPDE4. Briefly: hPDE4 enzyme inhibition. It is filed as biochemical, human. To be noted: read-out: IC50 against hPDE4.
Test [2] addresses T1, TbrPDEB1. The experiment in a line: TbrPDEB1 enzyme inhibition. It counts as biochemical. The note with it: for fold loss in potency (TbrPDEB1): relative to 12b (linker of four methylene groups).

Here are results for 6 molecules from article PMC4155488 (Bioorganic & medicinal chemistry letters, 2014).

For the molecule `COc1ccc([C@]2(C#N)CC[C@@H](C(=O)O)CC2)cc1OC1CCCC1` [Compound 1, cilomilast], the IC50 (commonly the concentration needed to halve the response being measured) with hPDE4B is 84 nM. As for `O=C(Nc1c(Cl)cncc1Cl)c1ccc(OC(F)F)c(OCC2CC2)c1` [Compound 4, roflumilast], on TbrPDEB1 [1], the TbrPDEB1 activity entry is “completely inactive”. In the case of `COc1ccc([C@]2(C#N)CC[C@@H](C(=O)O)CC2)cc1OCc1ccccc1` [Compound 7], the IC50 on hPDE4 came out at 540 nM. `COc1ccc([C@]2(C#N)CC[C@@H](C(=O)O)CC2)cc1OCCCCOc1ccccc1` [Compound 12b]: the “times more active than 1 against TbrPDEB1” value at TbrPDEB1 [2] (ratio of TbrPDEB1 IC50 versus compound 1) is listed as 17 fold. Regarding `COc1ccc([C@]2(C#N)CC[C@@H](C(=O)O)CC2)cc1OCCCOc1ccccc1` [Compound 12c], on TbrPDEB1 [2], the “fold loss in potency (TbrPDEB1)” value was ~ 10 fold.

As to `COc1ccc([C@]2(C#N)CC[C@@H](C(=O)O)CC2)cc1OCCCCCOc1ccccc1` [Compound 12d], the “fold loss in potency (TbrPDEB1)” value on TbrPDEB1 [2] is reported as ~ 10 fold.
